Results as given in patent US20190134069A1, “USE OF THYROID BETA-AGONISTS” (priority 2016, published 2019).

What was measured:
[1] = test system: X-ALD fibroblast cell lines; test: Cell health (proliferation, morphology) of X-ALD fibroblasts incubated with compounds; type: cell-based, Human; conditions: for cell survival (toxicity): 100 μM, both X-ALD cell lines, within 24 hours; for cell health judged by proliferation and morphology: after 72 hours
Protocol: (§1) Human skin fibroblasts were obtained from X-ALD patients through the Neurology Outpatient Clinic of the Academic Medical Center. Written informed consent was received from each patient. X-ALD diagnosis was confirmed by VLCFA and ABCD1 mutation analysis. Control fibroblasts were obtained from male anonymous volunteers with written informed consent. Fibroblasts were cultured in Dulbecco's modified Eagle's medium (DMEM) with L-glutamine and 4.5 g/L glucose, supplemented with 10% fetal calf serum, 2.5 mM HEPES, 100 U/ml penicillin and 100 U/ml streptomycin. Cells were cultured at 37° C. in a humidified 5% CO2 atmosphere. All fibroblast cell lines used were tested routinely for mycoplasma. All tests were negative.
10 mM stock solutions in DMSO were prepared by weighing the amount of compound (1 and 3 and their respective active metabolites, 2 and 4) as indicated in Table 2. Stock solutions were stored at room temperature in the dark. For each incubation, the amount of tissue culture medium needed was calculated and a stock solution of tissue culture medium with the final concentration of the to-be-tested compound was prepared. Tissue culture medium was removed from the cells, cells were washed once with PBS and the tissue culture medium with the compounds was added. If an experiment lasted longer than three days, the tissue culture medium and compounds were refreshed (using a fresh preparation) after three days until the end of the experiment.
Two different X-ALD fibroblast cell lines were incubated in duplicate with four compounds at three dosages as highlighted in Table 3.
4 X-ALD cell lines were incubated with 10 μM of 4 compounds 1, 2, 3, and 4. The effect of treatment on ABCD2 expression was analyzed at day 3 and day 10. For the 10 day incubation, tissue culture medium and compounds were refreshed at day 3 and day 6.

X-ALD cell lines [2] = test: D3-C26:0 de novo synthesis from D3-C22:0 in intact cells; type: cell-based, Human; conditions: 10 day treatment, 5 X-ALD cell lines
Protocol: as §1
The effect of treatment on D3-C26:0 synthesis in intact cells. The effect of certain compounds of the invention on the synthesis of D3-C26:0 from D3-C22:0 was measured in cultured skin fibroblasts from controls and X-ALD patients. Cells were seeded at approximately 40% confluency in T75 flasks in DMEM. The next day, medium was replaced with medium containing 30 μM D3-C22:0 and the assayed compounds at their final concentration. […] Each 72 h, the tissue culture medium and compounds was refreshed. At the end of the experiment cells were harvested and VLCFA analyzed as described (Valianpour et al., Molecular Genetics and Metabolism, 79: 189-196 (2003)).
VLCFA were analyzed by electrospray ionization mass spectrometry (ESI-MS) as described (Valianpour et al., Molecular Genetics and Metabolism, 79: 189-196 (2003)).
5 different X-ALD cell lines were incubated for 6 days with compounds 1, 2, 3, and 4 at 10 μM, 5 mM 4PBA (sodium 4-phenylbutyrate), or 0.1 μM sobetirome. On Day 6, 30 μM D3C22:0 was added to assess the effect of treatment on beta-oxidation and de novo D3C26:0 synthesis. 6 untreated control cells as well as 5 different untreated X-ALD cells were included to allow assessment of the treatment effect. The total set consisted of 41 experiments

ABCD1−/− mice [3] = test: Whole blood VLCFA-LPC levels in in vivo model of X-ALD; conditions: for Mean blood C26:0-LPC level: once daily IP
Protocol: (§2) Male ABCD1−/− mice were developed using the Taconic 129SvEv background strain. Animals were housed 3-4/cage under a 12-hour lighting cycle (7 AM-7 PM light) and controlled temperature (22° C.) in the rodent facility. They were fed standard mouse chow and had access to drinking water ad libitum. Mice were between 2 and 3 months of age at the beginning of each study.
(§3) Mice were injected once daily intraperitoneal with either drug or vehicle. For blood collection, ˜50 μL of blood was obtained by facial vein puncture using a sterile lancet. Blood was collected in a 1.5 ml microcentrifuge tube containing dried dipotassium EDTA and mixed by gentle inversion at least ten times before storing at −20° C. Blood was obtained in this manner following two, four, and six weeks of treatment. Following blood collection at six weeks, animals were sacrificed by cervical dislocation. Additional blood for preparation of plasma was obtained via cardiac puncture, and blood placed in Microtainer tubes. Brain, spinal cord, adrenal glands, testis, and liver were excised and snap frozen in liquid nitrogen for future analyses.

ABCD1−/− mice [4] = test: Plasma VLCFA-LPC levels in in vivo model of X-ALD
Protocol: as §2, §3
During the second cohort study, blood was obtained as described in the Methods section. At the six week time point sufficient blood was collected to permit plasma VLCFA analyses at weeks two, four and six. Plasma is considered by many to be a more reliable measurement of VLCFA levels, because of reduced analytical interference from other analytes, as well as reduced variability of the measurements.

X-ALD cell lines [5] = test: D3-C22:0 (VLCFA) beta-oxidation in intact cells; type: cell-based, Human; conditions: 10 day treatment, 5 X-ALD cell lines
Protocol: as §1
Peroxisomal beta-oxidation activity was measured essentially as described by incubating cells with 30 μM deuterium-labeled C22:0 (D3-C22:0) (Kemp et al., Clinical Chemistry 50: 1824-1826 (2004)). Cells were seeded at approximately 40% confluency in T75 flasks in DMEM. […] At the end of the experiment cells were harvested and VLCFA analyzed as described (Valianpour et al., Molecular Genetics and Metabolism, 79: 189-196 (2003)).
VLCFA were analyzed by electrospray ionization mass spectrometry (ESI-MS) as described (Valianpour et al., Molecular Genetics and Metabolism, 79: 189-196 (2003)). […]

[6] = second cohort, week 6, p<0.0001

SMILES: Cc1cc(OC[P@@]2(=O)OCC[C@@H](c3cccc(Cl)c3)O2)cc(C)c1Cc1ccc(O)c(C(C)C)c1 [Compound 1]
- cell survival (toxicity) [1]: dead
- cell health judged by proliferation and morphology ([1]; 0.1 or 10 μM): looked healthy
- reduction in D3C26:0 de novo synthesis (X-ALD cell lines [2]; 10 μM): ~40%

SMILES: Cc1cc(OCP(=O)(OCOC(=O)C(C)(C)C)OCOC(=O)C(C)(C)C)cc(C)c1Cc1ccc(O)c(Cc2ccccc2)c1 [Compound 3]
- cell survival (toxicity) [1]: dead
- cell health judged by proliferation and morphology ([1]; 0.1 or 10 μM): looked healthy
- reduction in whole blood C26:0-LPC levels relative to vehicle controls (ABCD1−/− mice [3]; initial cohort, after six week treatment, p<0.0001): 40%
- Mean blood C26:0-LPC level (ABCD1−/− mice [3]; initial cohort, week 2): 0.262 µM
- Mean blood C26:0-LPC level (ABCD1−/− mice [3]; initial cohort, week 4): 0.276 µM
- Mean blood C26:0-LPC level (ABCD1−/− mice [3]; initial cohort, week 6): 0.356 µM
- Difference in Mean Change from Baseline, blood C26:0-LPC (ABCD1−/− mice [3]; initial cohort, week 2): -0.052 µM
- % Difference versus Vehicle, blood C26:0-LPC (ABCD1−/− mice [3]; initial cohort, week 2, p NS): 0%
- Difference in Mean Change from Baseline, blood C26:0-LPC (ABCD1−/− mice [3]; initial cohort, week 4): -0.081 µM
- % Difference versus Vehicle, blood C26:0-LPC (ABCD1−/− mice [3]; initial cohort, week 4, p NS): −11%
- Difference in Mean Change from Baseline, blood C26:0-LPC (ABCD1−/− mice [3]; initial cohort, week 6): -0.188 µM
- % Difference versus Vehicle, blood C26:0-LPC (ABCD1−/− mice [3]; initial cohort, week 6, p<0.0001): −40%
- reduction in whole blood C26:0-LPC levels (change from baseline) (ABCD1−/− mice [3]; second cohort, daily IP, six weeks of treatment, FIG. 8): approximately 0.11 μM
- Least Squares Mean Change from Baseline Whole Blood C26:0-LPC (ABCD1−/− mice [3]; second cohort, week 2, p NS versus vehicle): -0.021 µM
- Least Squares Mean Change from Baseline Whole Blood C26:0-LPC (ABCD1−/− mice [3]; second cohort, week 4, p<0.01 versus vehicle): -0.096 µM
- Least Squares Mean Change from Baseline Whole Blood C26:0-LPC (ABCD1−/− mice [3]; second cohort, week 6, p<0.005 versus vehicle): -0.12 µM
- reduction in C26:0-LPC relative to vehicle-treated animals (ABCD1−/− mice [3]; second cohort, whole blood, six weeks, p<0.005): 52%
- C20:0-, C22:0-, and C24:0-LPC levels (ABCD1−/− mice [4]; after six weeks of treatment): significant reductions
- Mean plasma C20:0-LPC level (ABCD1−/− mice [4]; second cohort, week 6): 0.76 µM
- Mean plasma C22:0-LPC level (ABCD1−/− mice [4]; second cohort, week 6): 0.20 µM
- Mean plasma C24:0-LPC level (ABCD1−/− mice [4]; second cohort, week 6): 1.14 µM
- Mean plasma C26:0-LPC level (ABCD1−/− mice [4]; second cohort, week 6): 0.20 µM
- % Difference vs. Vehicle, plasma C20:0-LPC (ABCD1−/− mice [4]; [6]): −54%
- % Difference vs. Vehicle, plasma C22:0-LPC (ABCD1−/− mice [4]; [6]): −43%
- % Difference vs. Vehicle, plasma C26:0-LPC (ABCD1−/− mice [4]; [6]): −29%
- % Difference vs. Vehicle, plasma C24:0-LPC (ABCD1−/− mice [4]; second cohort, week 6, p<0.005): −21%

SMILES: O=C([O-])CCCc1ccccc1.[Na+] [Compound 4PBA, sodium 4-phenylbutyrate]
- VLCFA beta-oxidation restored (X-ALD cell lines [5]; 5 mM): ~50 % of controls
- VLCFA (D3C26:0) de novo synthesis (X-ALD cell lines [2]; 5 mM): near normal levels

SMILES: Cc1cc(OCC(=O)O)cc(C)c1Cc1ccc(O)c(C(C)C)c1 [sobetirome]
- effect on VLCFA beta-oxidation (X-ALD cell lines [5]; 0.1 μM): did not show any beneficial effect
- effect on VLCFA de novo synthesis (X-ALD cell lines [2]; 0.1 μM): did not show any beneficial effect

SMILES: Cc1cc(OCP(=O)(O)O)cc(C)c1Cc1ccc(O)c(Cc2ccccc2)c1 [Compound 4]
- cell health judged by proliferation and morphology ([1]; 0.1, 1 or 10 μM): looked healthy

SMILES: Cc1cc(OCP(=O)(O)O)cc(C)c1Cc1ccc(O)c(C(C)C)c1 [Compound 2]
- cell health judged by proliferation and morphology ([1]; 0.1, 1 or 10 μM): looked healthy
